Legend:
Assay type in all cases: functional
EKVX [1] = experiment: Anticancer activity against human EKVX cells after 48 hrs by sulforhodamine B assay
SF-295 = experiment: Anticancer activity against human SF295 cells after 48 hrs by sulforhodamine B assay
HT-29 = experiment: Anticancer activity against human HT-29 cells after 48 hrs by sulforhodamine B assay
NCI-H226 = experiment: Anticancer activity against human NCI-H226 cells after 48 hrs by sulforhodamine B assay
SK-MEL-28 = experiment: Anticancer activity against human SK-MEL-28 cells after 48 hrs by sulforhodamine B assay
SN12C = experiment: Anticancer activity against human SN12C cells after 48 hrs by sulforhodamine B assay
K562 = experiment: Anticancer activity against human K562 cells after 48 hrs by sulforhodamine B assay
NCI-H460 = experiment: Anticancer activity against human NCI-H460 cells after 48 hrs by sulforhodamine B assay
IGROV-1 = experiment: Anticancer activity against human IGROV1 cells after 48 hrs by sulforhodamine B assay; details: IGROV-1, 48 h; for CC50: read-out: LC50 (the source's name)
RXF 393 = experiment: Anticancer activity against human RXF393 cells after 48 hrs by sulforhodamine B assay
SF-539 = experiment: Anticancer activity against human SF539 cells after 48 hrs by sulforhodamine B assay
CCRF-CEM = experiment: Anticancer activity against human CCRF-CEM cells after 48 hrs by sulforhodamine B assay
SK-MEL-2 = experiment: Anticancer activity against human SK-MEL-2 cells after 48 hrs by sulforhodamine B assay; details: SK-MEL-2, 48 h
A498 = experiment: Anticancer activity against human A498 cells after 48 hrs by sulforhodamine B assay
HL-60(TB) = experiment: Anticancer activity against human HL-60(TB) cells after 48 hrs by sulforhodamine B assay; details: for CC50: read-out: LC50 (the source's name)
SNB-19 = experiment: Anticancer activity against human SNB19 cells after 48 hrs by sulforhodamine B assay
SK-OV-3 = experiment: Anticancer activity against human SKOV3 cells after 48 hrs by sulforhodamine B assay
Malme-3M = experiment: Anticancer activity against human MALME-3M cells after 48 hrs by sulforhodamine B assay
DU-145 = experiment: Anticancer activity against human DU145 cells after 48 hrs by sulforhodamine B assay
SK-MEL-5 = experiment: Anticancer activity against human SK-MEL-5 cells after 48 hrs by sulforhodamine B assay; details: for CC50: read-out: LC50 (the source's name)
U-251 = experiment: Anticancer activity against human U251 cells after 48 hrs by sulforhodamine B assay
NCI-H23 = experiment: Anticancer activity against human NCI-H23 cells after 48 hrs by sulforhodamine B assay
ACHN = experiment: Anticancer activity against human ACHN cells after 48 hrs by sulforhodamine B assay
[2] = Anticancer activity against human […] cells after 48 hrs by sulforhodamine B assay; details: for CC50: read-out: LC50 (the source's name)
SF-268 = experiment: Anticancer activity against human SF268 cells after 48 hrs by sulforhodamine B assay
[3] = Anticancer activity against human Hs 578T cells after 48 hrs by sulforhodamine B assay
MOLT-4 = experiment: Anticancer activity against human MOLT4 cells after 48 hrs by sulforhodamine B assay
HCC 2998 = experiment: Anticancer activity against human HCC2998 cells after 48 hrs by sulforhodamine B assay
MDA-MB-435 = experiment: Anticancer activity against human MDA-MB-435 cells after 48 hrs by sulforhodamine B assay; details: for CC50: read-out: LC50 (the source's name)
T47D = experiment: Anticancer activity against human T47D cells after 48 hrs by sulforhodamine B assay
PC-3 = experiment: Anticancer activity against human PC3 cells after 48 hrs by sulforhodamine B assay
SNB-75 = experiment: Anticancer activity against human SNB75 cells after 48 hrs by sulforhodamine B assay; details: for CC50: read-out: LC50 (the source's name)
SW-620 = experiment: Anticancer activity against human SW620 cells after 48 hrs by sulforhodamine B assay
EKVX [4] = experiment: Anticancer activity against human EKVX cells assessed cell growth at 10 uM after 48 hrs by sulforhodamine B assay relative to control

CCCCCCCCCCCCCCCCCC[n+]1ccn(C)c1.O=S(=O)([N-]S(=O)(=O)C(F)(F)F)C(F)(F)F
GI50 (EKVX [1]; Homo sapiens, EKVX, 48 h): 0.673 µM | CC50 (EKVX [1]; Homo sapiens, EKVX, 48 h, read-out: LC50 (the source's name)): 5.76 µM | GI50 (SF-295; Homo sapiens, SF-295, 48 h): 0.484 µM | CC50 (SF-295; Homo sapiens, SF-295, 48 h, read-out: LC50 (the source's name)): 6.61 µM | GI50 (HT-29; Homo sapiens, HT-29, 48 h): 0.378 µM | CC50 (HT-29; Homo sapiens, HT-29, 48 h, read-out: LC50 (the source's name)): 9.13 µM | GI50 (NCI-H226; Homo sapiens, NCI-H226, 48 h): 1.26 µM | LC50 (NCI-H226; Homo sapiens, NCI-H226, 48 h): 8 µM | GI50 (SK-MEL-28; Homo sapiens, SK-MEL-28, 48 h): 1.14 µM | LC50 (SK-MEL-28; Homo sapiens, SK-MEL-28, 48 h): 6.51 µM | GI50 (SN12C; Homo sapiens, SN12C, 48 h): 1.25 µM | LC50 (SN12C; Homo sapiens, SN12C, 48 h): 5.72 µM | GI50 (K562; Homo sapiens, K562, 48 h): 0.312 µM | CC50 (K562; Homo sapiens, K562, 48 h, read-out: LC50 (the source's name)): > 100 µM | GI50 (NCI-H460; Homo sapiens, NCI-H460, 48 h): 0.663 µM | LC50 (NCI-H460; Homo sapiens, NCI-H460, 48 h): 5.24 µM | GI50 (IGROV-1): 0.516 µM | CC50 (IGROV-1): > 100 µM | GI50 (RXF 393; Homo sapiens, RXF 393, 48 h): 1.03 µM | LC50 (RXF 393; Homo sapiens, RXF 393, 48 h): 6.55 µM | GI50 (SF-539; Homo sapiens, SF-539, 48 h): 0.937 µM | LC50 (lethal concentration, 50% cell kill) (SF-539; Homo sapiens, SF-539, 48 h): 5.28 µM | GI50 (CCRF-CEM; Homo sapiens, CCRF-CEM, 48 h): 0.458 µM | LC50 (CCRF-CEM; Homo sapiens, CCRF-CEM, 48 h): > 100 µM | GI50 (SK-MEL-2): 2.09 µM | LC50 (SK-MEL-2): > 100 µM | GI50 (A498; Homo sapiens, A498, 48 h): 1.07 µM | CC50 (A498; Homo sapiens, A498, 48 h, read-out: LC50 (the source's name)): 6.22 µM | GI50 (HL-60(TB); Homo sapiens, HL-60, 48 h): 0.293 µM | CC50 (HL-60(TB); Homo sapiens, HL-60, 48 h): > 100 µM | GI50 (SNB-19; Homo sapiens, SNB-19, 48 h): 1.18 µM | CC50 (SNB-19; Homo sapiens, SNB-19, 48 h, read-out: LC50 (the source's name)): 4.95 µM | GI50 (SK-OV-3; Homo sapiens, SK-OV-3, 48 h): 1.16 µM | CC50 (SK-OV-3; Homo sapiens, SK-OV-3, 48 h, read-out: LC50 (the source's name)): 5.82 µM | GI50 (Malme-3M; Homo sapiens, Malme-3M, 48 h): 0.454 µM | LC50 (concentration killing 50% of cells) (Malme-3M; Homo sapiens, Malme-3M, 48 h): 5.08 µM | GI50 (DU-145; Homo sapiens, DU-145, 48 h): 0.792 µM | CC50 (DU-145; Homo sapiens, DU-145, 48 h, read-out: LC50 (the source's name)): 4.69 µM | GI50 (SK-MEL-5; Homo sapiens, SK-MEL-5, 48 h): 0.532 µM | CC50 (SK-MEL-5; Homo sapiens, SK-MEL-5, 48 h): 4.21 µM | GI50 (U-251; Homo sapiens, U-251, 48 h): 0.397 µM | CC50 (U-251; Homo sapiens, U-251, 48 h, read-out: LC50 (the source's name)): 3.97 µM | GI50 (NCI-H23; Homo sapiens, NCI-H23, 48 h): 0.407 µM | CC50 (NCI-H23; Homo sapiens, NCI-H23, 48 h, read-out: LC50 (the source's name)): 7.7 µM | GI50 (ACHN; Homo sapiens, ACHN, 48 h): 0.92 µM | LC50 (ACHN; Homo sapiens, ACHN, 48 h): 4.78 µM | GI50 ([2]; Homo sapiens, RPMI8266, 48 h): 0.062 µM | CC50 ([2]; Homo sapiens, RPMI8266, 48 h): > 100 µM | GI50 (SF-268; Homo sapiens, SF-268, 48 h): 1.14 µM | CC50 (SF-268; Homo sapiens, SF-268, 48 h, read-out: LC50 (the source's name)): 6.29 µM | GI50 ([3]; Homo sapiens, Hs-578T, 48 h): 0.546 µM | CC50 ([3]; Homo sapiens, Hs-578T, 48 h, read-out: LC50 (the source's name)): 8.48 µM | GI50 (MOLT-4; Homo sapiens, MOLT-4, 48 h): 0.65 µM | LC50 (MOLT-4; Homo sapiens, MOLT-4, 48 h): > 100 µM | GI50 (HCC 2998; Homo sapiens, HCC 2998, 48 h): 0.494 µM | CC50 (HCC 2998; Homo sapiens, HCC 2998, 48 h, read-out: LC50 (the source's name)): 9.07 µM | GI50 (MDA-MB-435; Homo sapiens, MDA-MB-435, 48 h): 1.08 µM | CC50 (MDA-MB-435; Homo sapiens, MDA-MB-435, 48 h): 6.69 µM | GI50 (T47D; Homo sapiens, T47D, 48 h): 0.6 µM | CC50 (T47D; Homo sapiens, T47D, 48 h, read-out: LC50 (the source's name)): > 100 µM | GI50 (PC-3; Homo sapiens, PC-3, 48 h): 0.311 µM | CC50 (PC-3; Homo sapiens, PC-3, 48 h, read-out: LC50 (the source's name)): 5.26 µM | GI50 (SNB-75; Homo sapiens, SNB-75, 48 h): 0.53 µM | CC50 (SNB-75; Homo sapiens, SNB-75, 48 h): 5.71 µM | GI50 (SW-620; Homo sapiens, SW-620, 48 h): 0.52 µM | LC50 (SW-620; Homo sapiens, SW-620, 48 h): 6.48 µM

Cn1cc[n+](CCO)c1.O=S(=O)([N-]S(=O)(=O)C(F)(F)F)C(F)(F)F
Activity (EKVX [4]): 100.51%

CCCCCCCCCCCC[n+]1ccn(C)c1.F[B-](F)(F)F
GI50 (EKVX [1]): 0.792 µM | GI50 (SF-295): 2.93 µM | GI50 (HT-29): 2.19 µM | GI50 (NCI-H226): 4.62 µM | GI50 (SK-MEL-28): 10.1 µM | GI50 (SN12C): 3.35 µM | GI50 (K562): 0.363 µM | GI50 (NCI-H460): 4.29 µM | GI50 (IGROV-1): 0.533 µM | CC50 (IGROV-1): > 100 µM | GI50 (RXF 393): 6.52 µM | GI50 (SF-539): 2.88 µM | GI50 (CCRF-CEM): 1.62 µM | GI50 (A498): 7.53 µM | GI50 (HL-60(TB)): 0.324 µM | CC50 (HL-60(TB)): 9.93 µM | GI50 (SNB-19): 10.9 µM | GI50 (SK-OV-3): 5.97 µM | GI50 (Malme-3M): 5.06 µM | GI50 (DU-145): 10.9 µM | GI50 (SK-MEL-5): 1.66 µM | CC50 (SK-MEL-5): 54.5 µM | GI50 (U-251): 2.81 µM | GI50 (NCI-H23): 2.44 µM | GI50 (ACHN): 10 µM | GI50 [2]: 0.312 µM | CC50 [2]: 9.48 µM | GI50 (SF-268): 5.98 µM | GI50 [3]: 6.11 µM | GI50 (MOLT-4): 2.58 µM | GI50 (HCC 2998): 4.18 µM | GI50 (MDA-MB-435): 2.15 µM | CC50 (MDA-MB-435): 77.5 µM | GI50 (T47D): 4.31 µM | GI50 (PC-3): 2.08 µM | GI50 (SNB-75): 3.71 µM | CC50 (SNB-75): 90.3 µM | GI50 (SW-620): 7.25 µM
